Data from the CheMixHub ionic liquid set.

Assay: xn = mol fraction of the nth substance listed

CCCC[n+]1ccn(C)c1.O=S(=O)([N-]S(=O)(=O)C(F)(F)F)C(F)(F)F + CCCC[n+]1ccn(C)c1.N#C[C-](C#N)C#N
100 kPa, x1 = 1
Details	viscosity [mPa·s]
283.15 K	106.8
288.15 K	82.2
293.15 K	64.5
298.15 K	51.6
303.15 K	41.9
308.15 K	34.6
313.15 K	28.9
318.15 K	24.5
323.15 K	20.9
328.15 K	18.05
333.15 K	15.72
338.15 K	13.8
343.15 K	12.2
348.15 K	10.86
353.15 K	9.72
358.15 K	8.75
363.15 K	7.93

CC[n+]1ccn(C)c1.O=S(=O)([O-])O + O
viscosity [mPa·s]
Details	293.15 K	298.15 K	303.15 K	308.15 K	313.15 K	318.15 K
100 kPa, x1 = 0.0005421	1.046	0.929	0.824	0.75	0.678	–
100 kPa, x1 = 0.0009002	1.05	0.94	0.84	0.76	0.69	0.65
100 kPa, x1 = 0.0009056	1.068	0.949	0.843	0.759	0.684	–
100 kPa, x1 = 0.001263	1.073	0.966	0.866	0.78	0.697	–
100 kPa, x1 = 0.001799	1.07	0.95	0.85	0.77	0.7	0.64
100 kPa, x1 = 0.002696	1.08	0.96	0.86	0.78	0.71	0.64
101 kPa, x1 = 0.0006645	1.023	0.93	0.8234	0.7498	0.6736	–
101 kPa, x1 = 0.0007293	1.036	0.943	0.8247	0.7493	0.6893	–
101 kPa, x1 = 0.0009254	1.064	0.943	0.8439	0.7628	0.6829	–

CC[n+]1ccn(C)c1.O=S(=O)([O-])O + O=C([O-])CC(O)(CC(=O)[O-])C(=O)[O-].[NH4+].[NH4+].[NH4+] + O
viscosity [mPa·s], 101 kPa
Details	293.15 K	298.15 K	303.15 K	308.15 K	313.15 K
x2 = 0, x1 = 0.0006645	1.023	0.93	0.823	0.75	0.674
x2 = 0, x1 = 0.0007293	1.036	0.943	0.825	0.749	0.689
x2 = 0, x1 = 0.0009254	1.064	0.943	0.844	0.763	0.683
x2 = 0.0007784, x1 = 0.0007287	1.08	0.994	0.875	0.801	0.743
x2 = 0.0007964, x1 = 0.0009246	1.11	0.994	0.895	0.815	0.737
x2 = 0.000825, x1 = 0.0006639	1.07	0.983	0.877	0.803	0.727
x2 = 0.001056, x1 = 0.0007285	1.096	1.005	0.886	0.813	0.756
x2 = 0.001057, x1 = 0.0006638	1.083	0.992	0.886	0.813	0.737
x2 = 0.001176, x1 = 0.0009243	1.133	1.008	0.911	0.832	0.755
x2 = 0.001406, x1 = 0.0009241	1.146	1.017	0.919	0.841	0.765
x2 = 0.001588, x1 = 0.0007281	1.126	1.024	0.906	0.834	0.779
x2 = 0.001621, x1 = 0.0006634	1.115	1.012	0.906	0.835	0.761
x2 = 0.001717, x1 = 0.0006634	1.12	1.015	0.91	0.839	0.764
x2 = 0.001746, x1 = 0.000728	1.135	1.029	0.911	0.84	0.786
x2 = 0.001804, x1 = 0.0009237	1.169	1.03	0.934	0.857	0.782
x2 = 0.002295, x1 = 0.0009233	1.198	1.047	0.951	0.876	0.803
x2 = 0.002321, x1 = 0.0007276	1.168	1.048	0.931	0.861	0.809
x2 = 0.002323, x1 = 0.000663	1.155	1.034	0.93	0.86	0.787
x2 = 0.002686, x1 = 0.0007273	1.189	1.059	0.943	0.874	0.824
x2 = 0.002704, x1 = 0.0006627	1.176	1.046	0.942	0.873	0.801
x2 = 0.002709, x1 = 0.0009229	1.223	1.06	0.965	0.891	0.82
